Experimental data: the supplement of paper PMC11451515

Tested on: SEM cells
Experiment: cell viability relative to DMSO control; higher = less cytotoxic
Conditions: 48 h
In short: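 Viability values are per-plate percentages of DMSO wells, with background from cell-free wells. Library compounds in DMSO were pin-dosed, in an 11-point threefold series from 47 μM to 0.79 nM, onto NOMO1 or SEM (500 cells/well) or P12-Ichikawa (1000 cells/well) leukemia cells in 1536-well plates (5 μl). Those cells had been adapted for at least four passages in each medium, and CellTiter-Glo One luminescence was read after 48 h at 37°C.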

[1] = HPLM + 10% dialyzed FBS, 0.000781 µM
[2] = HPLM + 10% dialyzed FBS, 0.00234 µM
[3] = HPLM + 10% dialyzed FBS, 0.00702 µM
[4] = HPLM + 10% dialyzed FBS, 0.0211 µM
[5] = HPLM + 10% dialyzed FBS, 0.0632 µM
[6] = HPLM + 10% dialyzed FBS, 0.19 µM
[7] = HPLM + 10% dialyzed FBS, 0.569 µM
[8] = HPLM + 10% dialyzed FBS, 1.71 µM
[9] = HPLM + 10% dialyzed FBS, 5.12 µM
[10] = HPLM + 10% dialyzed FBS, 15.4 µM
[11] = HPLM + 10% dialyzed FBS, 46.1 µM
[12] = RPMI 5 mM glucose + 10% FBS, 0.000781 µM
[13] = RPMI 5 mM glucose + 10% FBS, 0.00234 µM
[14] = RPMI 5 mM glucose + 10% FBS, 0.00702 µM
[15] = RPMI 5 mM glucose + 10% FBS, 0.0211 µM
[16] = RPMI 5 mM glucose + 10% FBS, 0.0632 µM
[17] = RPMI 5 mM glucose + 10% FBS, 0.19 µM
[18] = RPMI 5 mM glucose + 10% FBS, 0.569 µM
[19] = RPMI 5 mM glucose + 10% FBS, 1.71 µM
[20] = RPMI 5 mM glucose + 10% FBS, 5.12 µM
[21] = RPMI 5 mM glucose + 10% FBS, 15.4 µM
[22] = RPMI 5 mM glucose + 10% FBS, 46.1 µM
[23] = RPMI 5 mM glucose + 10% dialyzed FBS, 0.000781 µM
[24] = RPMI 5 mM glucose + 10% dialyzed FBS, 0.00234 µM
[25] = RPMI 5 mM glucose + 10% dialyzed FBS, 0.00702 µM
[26] = RPMI 5 mM glucose + 10% dialyzed FBS, 0.0211 µM
[27] = RPMI 5 mM glucose + 10% dialyzed FBS, 0.0632 µM
[28] = RPMI 5 mM glucose + 10% dialyzed FBS, 0.19 µM
[29] = RPMI 5 mM glucose + 10% dialyzed FBS, 0.569 µM
[30] = RPMI 5 mM glucose + 10% dialyzed FBS, 1.71 µM
[31] = RPMI 5 mM glucose + 10% dialyzed FBS, 5.12 µM
[32] = RPMI 5 mM glucose + 10% dialyzed FBS, 15.4 µM
[33] = RPMI 5 mM glucose + 10% dialyzed FBS, 46.1 µM

Compound	cell viability [1] [%]	cell viability [2] [%]	cell viability [3] [%]	cell viability [4] [%]	cell viability [5] [%]	cell viability [6] [%]	cell viability [7] [%]	cell viability [8] [%]	cell viability [9] [%]	cell viability [10] [%]	cell viability [11] [%]	cell viability [12] [%]	cell viability [13] [%]	cell viability [14] [%]	cell viability [15] [%]	cell viability [16] [%]	cell viability [17] [%]	cell viability [18] [%]	cell viability [19] [%]	cell viability [20] [%]	cell viability [21] [%]	cell viability [22] [%]	cell viability [23] [%]	cell viability [24] [%]	cell viability [25] [%]	cell viability [26] [%]	cell viability [27] [%]	cell viability [28] [%]	cell viability [29] [%]	cell viability [30] [%]	cell viability [31] [%]	cell viability [32] [%]	cell viability [33] [%]
Cc1cccc2c1CC[C@H](CN1CCC(c3c(Cl)cccc3Cl)CC1)C[C@@H]2O	71	98.2	113	111	128	114	116	122	101	96.6	79.9	112	138	120	127	130	111	142	133	108	72.5	58	88.5	109	118	126	120	95.8	104	112	91.9	70.6	58.3
CC[C@@H]1C(=O)N(C)c2cnc(Nc3ccc(C(=O)NC4CCN(C)CC4)cc3OC)nc2N1C1CCCC1	–	–	–	–	–	–	–	–	–	–	–	104	125	114	116	39	19.9	20.8	17.8	13.5	7.48	3.43	117	128	105	128	37.9	23.2	22.1	18.9	11.1	6.14	3.08
CCOC(=O)[C@@H](N)CCC(=O)N[C@@H](CSCc1ccccc1)C(=O)N[C@@H](C(=O)OCC)c1ccccc1	84.5	105	99.8	103	104	111	109	116	119	97.1	102	–	–	–	–	–	–	–	–	–	–	–	–	–	–	–	–	–	–	–	–	–	–
COC(=O)[C@H](c1ccccc1Cl)N1CCc2sccc2C1	75.5	89.5	105	110	96.3	111	106	120	109	121	111	87.5	80.4	97.2	98.9	93.3	102	106	103	107	107	108	84.1	84.1	86.5	108	110	91.6	95.3	135	116	122	99.5
Oc1ccc2ccccc2c1SSc1c(O)ccc2ccccc12	95	102	109	116	106	85.8	99.5	96.2	108	97.3	9.05	104	109	95	102	111	79.1	103	99.4	104	78.9	30	95	99.6	84.3	113	92.5	66.9	93.1	104	87.6	74.7	20.1
C[N]1C=C(C=N1)C2=CC=C3N=CC\4=C(N(C(=O)\C=C4)C5=CC6=C(CCN6C(=O)C=C)C=C5)C3=C2	118	114	96.1	120	93.9	110	102	82.1	27.6	4.07	4.13	104	105	90.4	110	117	111	118	80.5	26.6	2.7	3.13	–	–	–	–	–	–	–	–	–	–	–
COc1cc2c(Nc3ccc(Cl)c(Cl)c3F)ncnc2cc1OC[C@@H]1C[C@@H]2CN(C)C[C@@H]2C1	88.5	78.5	86.2	91.6	94.5	94.5	94.4	91.5	87.8	40	3.92	–	–	–	–	–	–	–	–	–	–	–	88.8	91.6	110	103	121	91.1	103	95.5	93.7	74.7	3.96
CCCCCCCCCCCC/1=C(O)/C(=O)/C=C(O)\C1=O	98.9	111	126	132	128	138	118	144	130	127	130	–	–	–	–	–	–	–	–	–	–	–	107	120	126	132	131	138	134	140	137	146	129
CCN(CC)CCCC(C)Nc1nc(C)cc(Nc2ccc3nc(C)cc(N)c3c2)n1 (stereo not given)	100	104	96.1	100	101	115	106	114	110	99.7	88.2	75.2	80.4	75.3	72.2	69.6	65.5	75.5	75.6	63.9	66.1	72	115	97.1	113	107	100	118	98.9	106	96.4	99.6	86.4
CC(C)n1cnc2c(NCCc3ccc(O)cc3)nc(-c3csc4ccccc34)nc21	105	91	99.5	114	114	139	116	122	122	39.8	10.4	111	103	102	108	101	125	129	99.2	77.2	8.37	8.04	106	97.7	103	110	114	127	132	122	57.7	11.4	7.89
CC(C)(C)C1=CC(=C(NC(=O)C/2=C/NC3=C(C=CC=C3)C2=O)C=C1O)C(C)(C)C	122	118	128	123	113	131	124	124	109	108	103	109	108	126	113	120	111	129	129	123	116	108	98.7	101	103	99.9	101	103	115	97.8	110	110	94.7
O=C(NCc1ccccc1)c1csc(Nc2ccncn2)n1	84	77.5	97	106	108	75.7	74.4	50.4	17.2	4.02	1.49	97.4	82.9	99.5	96.3	108	55.3	67.8	29.2	9.72	2.63	1.31	89.6	69.1	94.8	103	108	81.5	85.9	43.7	17.4	2.76	1.35
CCCCc1nc2cc(/C=C/C(=O)NO)ccc2n1CCN(CC)CC	91.9	91.8	105	98.1	108	108	92.6	61.1	6.03	4.68	5.88	85.4	99.1	94.8	97.8	109	107	94	73	5.16	4.06	5.64	82.9	79.1	95.6	94	77.5	99.6	76.6	57.7	6.04	4.68	6.77
COc1cc(Cl)cn2c(-c3cccc(NC4CNC4)n3)cnc12	114	117	131	121	133	116	125	90.8	128	105	96.8	–	–	–	–	–	–	–	–	–	–	–	–	–	–	–	–	–	–	–	–	–	–
Nc1ccn([C@H]2CS[C@@H](CO)O2)c(=O)n1	81.2	108	109	122	137	126	123	129	123	101	147	101	116	108	135	157	138	141	130	144	153	144	104	136	117	134	144	138	139	135	138	110	135
C=CC(=O)Nc1ccc2ncnc(Nc3ccc(OCc4cccc(F)c4)c(Cl)c3)c2c1	75.8	82.7	83.9	84.4	103	91.2	89.7	101	77.5	21.2	18.1	102	105	115	117	95.3	110	118	116	76.1	14.6	12.5	85.5	87.5	88.4	92.4	102	92.4	93	107	77	19.9	11.1
